In US20230047208A1, “RNA Splicing Modulation” (The General Hospital Corporation, priority 2020, published 2023):

System: wildtype (WT) human fibroblast cell lines
Experiment: Transcriptome-wide splicing by RNA sequencing (RNASeq), exon triplet PSI change;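 as to Effect: six WT fibroblast lines treated seven days versus DMSO vehicle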;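 as to T-PSI: T-PSI is average treated PSI after seven days of treatment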
Type: cell-based
Design: key to Effect: Exclusion; Inclusion; Unchanged
Text: FIG. 2A provides a representation of an exon triplet. Exon U is upstream of Exon X, which is upstream of Exon D. R1, R2 and R3 represent RNA sequencing (RNASeq) reads spanning the regions between two adjacent exons. UI1, I1X, XI2 and I2D are four regions flanking the four splice sites of the exon-triplet. Each flanking region consists of 25 exonic base pairs and 75 intronic base pairs.
FIG. 2B provides a volcano plot showing the ψ (PSI: Percent Spliced-In) changes in splicing after treatment with Compound (I). Each dot represents one of the 161,097 expressed exon triplets in human fibroblasts. The x axis represents the ψ changes after treatment and the y axis represents the False Discovery Rate (FDR) (log 10 transformed). […] The horizontal dashed line indicates an FDR of 0.1. The dots on the right side of the right vertical dashed line and above the horizontal dashed line represent the exon-triplets with an increase for Exon X inclusion (Δψ≥0.1 and FDR<0.1) while the dots on left side of the left vertical dashed line and above the horizontal dashed line represent an increase for Exon X exclusion (Δψ≤−0.1 and FDR<0.1). Black dots in-between the two vertical dashed lines represent exon-triplets unchanged from the treatment.
In some aspects, analysis is performed on data derived from the assay to measure the magnitude of splicing to determine the amount of exons spliced into an mRNA transcript that is produced in the presence of Compound (I) relative to the amount in the absence of Compound (I) or presence of a negative control. In a preferred aspect, the method utilized is calculation of change in Percent Spliced In (ΔPSI). […] The ΔPSI value is derived from the formula: […]
The values for “a” and “b” represent the number of reads supporting the probability for potential inclusion or exclusion of an exon in an RNA transcript. The “a” value is derived from the number of reads within an exon triplet covering, in 5′ to 3′ order: the last few bases (>1 nucleotide) of an upstream exon operably linked to the first few bases (>1 nucleotide) of a middle exon. The “b” value is derived from the number of reads within an exon triplet covering, in 5′ to 3′ order: the last few bases (>1 nucleotide) of the middle exon operably linked to the first few bases (>1 nucleotide) of a downstream exon. The number of reads will indicate whether the splice junction of a middle exon has been identified as potentially having a CNN Motif(s) by the CNN Model described herein, wherein the inclusion or exclusion of the middle exon may be modulated in the presence of Compound (I) to produce one or more mature RNA isoforms from the gene transcript. The value for “c” represents the number of reads supporting the exclusion of the middle exon.
The effect on splicing modulation and corresponding splice differences toward exon inclusion or exclusion was determined by counting the RNASeq reads covering two splice junctions of exon triplets (three consecutive exons: Exon U, Exon X, Exon D) and the corresponding intervening introns, then comparing the change in Percent Spliced In (ΔPSI or Δψ) of the middle exon (Exon X) after treatment (as shown in FIG. 2A)^52,53. 934 exon triplets were identified showing differential middle exon inclusion or exclusion in response to Compound (I) treatment. Of these, 254 were exon inclusion events (Δψ≥0.1 and FDR<0.1) and 680 were exon exclusion events (Δψ≤−0.1 and FDR<0.1) (as shown in FIG. 2B). […] The splicing results were evaluated by RT-PCR in independent replicate experiments, confirming all the calculated Δψ values. […]

[1] = PCNXL2 Exon 233160892-233161145
[2] = PCNXL2 Exon 233353645-233353677
[3] = PDE4DIP Exon 144859759-144859998

## Clc1nc(NCc2ccncc2)c2cc[nH]c2n1 [Compound (I), 2-chloro-N-(pyridin-4-ylmethyl)-7H-pyrrolo[2,3-d]pyrimidin-4-amine]
PARP6 Exon 72543186-72543295
  ΔPSI: 0.148
PARP6 Exon 72543186-72543298
  Effect: Inc
  T-PSI: 0.870
  ΔPSI: 0.164
PARP11 Exon 3938076-3938196
  Effect: Exc
  T-PSI: 0.250
  ΔPSI: −0.245
PATL1 Exon 59423429-59423518
  Effect: Exc
  T-PSI: 0.710
  ΔPSI: −0.168
PCBP2 Exon 53861589-53861627
  Effect: Exc
  T-PSI: 0.431
  ΔPSI: −0.218
PCID2 Exon 113845186-113845289
  Effect: Exc
  T-PSI: 0.757
  ΔPSI: −0.217
PCM1 Exon 17838100-17838264
  Effect: Exc
  T-PSI: 0.444
  ΔPSI: −0.135
[1]
  Effect: Unc
  T-PSI: 0.891
  ΔPSI: 0.009
[2]
  Effect: Exc
  T-PSI: 0.899
  ΔPSI: −0.101
PCNXL4 Exon 60574304-60575045
  Effect: Exc
  T-PSI: 0.498
  ΔPSI: −0.151
PCYT2 Exon 79863258-79863323
  Effect: Exc
  T-PSI: 0.804
  ΔPSI: −0.150
[3]
  Effect: Inc
  T-PSI: 0.821
  ΔPSI: 0.140
PDGFC Exon 157782581-157782641
  Effect: Unc
  T-PSI: 0.141
  ΔPSI: 0.006
PDLIM2 Exon 22449064-22449181
  Effect: Exc
  T-PSI: 0.542
  ΔPSI: −0.322
PDP1 Exon 94930139-94930173
  Effect: Unc
  T-PSI: 0.184
  ΔPSI: −0.002
PDPR Exon 70148773-70148833
  Effect: Unc
  T-PSI: 0.268
  ΔPSI: −0.005
PDXDC2P Exon 70010714-70011906
  Effect: Unc
  T-PSI: 0.246
  ΔPSI: −0.004
PDZD11 Exon 69509372-69509443
  Effect: Inc
  T-PSI: 0.417
  ΔPSI: 0.257
PEAK1 Exon 77576225-77576372
  Effect: Exc
  T-PSI: 0.201
  ΔPSI: −0.170
PEAK1 Exon 77657505-77657567
  Effect: Unc
  T-PSI: 0.806
  ΔPSI: −0.001
PEX1 Exon 92138643-92138725
  Effect: Exc
  T-PSI: 0.444
  ΔPSI: −0.341
PEX5 Exon 7354837-7354947
  Effect: Exc
  T-PSI: 0.279
  ΔPSI: −0.163
PEX11A Exon 90229662-90229777
  Effect: Exc
  T-PSI: 0.316
  ΔPSI: −0.403
PFDN1 Exon 139680001-139680167
  T-PSI: 0.458
  ΔPSI: −0.326
PFDN5 Exon 53690214-53690335
  T-PSI: 0.175
  ΔPSI: 0.008
PFDN5 Exon 53690238-53690335
  T-PSI: 0.180
  ΔPSI: 0.007
RNASeq, human fibroblasts, out of 161,097 expressed triplets
  exon triplets showing differential middle exon inclusion or exclusion in response to treatment: 934
Δψ≤0.01
  unchanged-response set, exon triplets: 382
Δψ≤−0.1 and FDR<0.1
  exon exclusion events: 680
Δψ≥0.1 and FDR<0.1
  exon inclusion events: 254
